In PMC7730513, “A Topical Formulation of Melatoninergic Compounds Exerts Strong Hypotensive and Neuroprotective Effects in a Rat Model of Hypertensive Glaucoma” (International Journal of Molecular Sciences, 2020):
Several values for one entry are separate records, joined by “and”; a condition that tells them apart may be missing. Identical values can stand only once. Entries after “also recorded” stand apart in the source; their conditions may differ. Like-named read-outs stand apart in the source and are kept apart here.

How the values were obtained:
[1] = molecular target: MT1 melatonin receptor; details: read-out: Affinity of MT1 melatonin receptor; cited from earlier work
[2] = Pharmacokinetics study: eye tissue distribution of melatonin/agomelatine eye drops by HPLC/MS/MS in healthy rats; details: for concentration at 2 h: rat, topical, 40 µg
Procedure: (§4) Two hours after the last treatment, animals were euthanized with an overdose of pentobarbital and the eye globes removed. One eye of each rat was taken whole, while the fellow eyes were dissected, and retinas and vitreous humors were separately taken. Whole eyes were cut in small pieces and separately homogenized with an Ultra-turrax homogenizer for 3 min on ice at 4 °C in 0.25 mL of methanol, then subjected to 1 min of ultrasonication in a cold-water bath. The five retinas were pooled together and extracted as before in 0.1 mL of methanol. Each vitreous body was diluted with 0.05 mL of methanol and sonicated. All samples were finally centrifuged 10 min at 10,000× g rpm and the supernatants were saved frozen for further analysis. […] The operational MS parameters of the instrument were: gas temperature, 350 °C; gas flow, 5 L/min; nebulizer, 20 psi; capillary, 3500 V; collision energy, 15 V; dwell-time, 200 msec; fragmentor, 135 V.

[3] = molecular target: MT2 melatonin receptor; details: read-out: Affinity of MT2 melatonin receptor; cited from earlier work
[4] = brimonidine eye drops in monkeys; cited from earlier work
[5] = test system: Brn3a-positive RGCs; experiment: RGC density by Brn3a immunohistochemistry in retinal flat mounts; type: in vivo, rat; details: for RGC loss spared: MCE reduced RGC density by about 29%; for RGC density (% of control), Central: central retina; for RGC density (% of control), Central / RGC density (% of control), Middle / RGC density (% of control), Peripheral: MCE + treatment, mean ± SEM, n = 6; for RGC density (% of control), Middle: middle retina; for RGC density (% of control), Peripheral: peripheral retina
Procedure: (§1) The model was originally developed in rabbits and then applied to rodents. It is based on the injection of 2% MCE in sterile saline in the anterior chamber of the eye. The MCE used in the present study (M0512; Sigma Aldrich, St. Louis, MO, USA) is pure and has a molecular weight of about 88,000 and, when dissolved in aqueous solution at 2% gives a solution with a viscosity ranging from 3500 to 5600 cps. Rats, anesthetized with an intraperitoneal injection of pentobarbital (30 mg/kg), were injected into the anterior chamber with 15 µL of MCE in both eyes using a 18G needle in agreement with published protocols. […] The eyes of each rat were evaluated for unintended adverse effects of intraocular injection -e.g., cataract, corneal opacity or edema that could impact electrophysiological parameters and/or tonometer accuracy.
(§2) Eye drops (10 µL) were administered to both eyes two times a day over two weeks after MCE injection. Eye drops were instilled at 10 a.m. and at 6 p.m.
After animal euthanization with an overdose of pentobarbital, six retinas from independent rats for each experimental group were explanted. Retinas were then fixed for 90 min at 4 °C in 4% paraformaldehyde in 0.1 M phosphate buffer (PB) and stored at 4 °C in 25% sucrose in 0.1 M PB. Retinal ganglion cells were labeled incubating the retinas for 24 h at 4 °C with a mouse monoclonal antibody against Brn3a (1:100 in PB containing 5% BSA and 2% TritonX-100; sc-8429; Santa Cruz Biotechnology, Santa Cruz, CA, USA). Retina whole mounts were then washed with PB and incubated overnight at 4 °C in an AlexaFluor555-conjugated secondary antibody (1:100; A-32727; Molecular Probes, Eugene, OR, USA). Finally, retinas were washed with PB, mounted on glass slides with the photoreceptor side facing down and viewed with a fluorescence microscope (Ni-E; Nikon-Europe, Amsterdam, The Netherlands). Images of the entire retina were acquired by a DS-Fi1c camera (Nikon-Europe) and Brn3a-positive cells were counted using the NIS-Elements software (Nikon-Europe). […] In total, 12 images were taken from each retina. The density of Brn3a-positive cells (number of cells per mm^2) was compared between the different experimental groups. Quantification was performed in a masked manner.

[6] = test system: IL-6; experiment: Western blot of retinal homogenates, IL-6; type: in vivo, rat; details: retina, MCE model, versus respective vehicle
Procedure: as §1, with “accuracy. […]” for “accuracy.”
(§3) After animal euthanization with an overdose of pentobarbital, retinas were isolated and stored at −80 °C. […] Protein concentration was measured using the Micro BCA Protein Assay (Thermo Fisher Scientific, Waltham, MA, USA). […] Blots were blocked for 1 h with 5% skim milk and incubated overnight at 4 °C with the primary antibodies listed in Supplementary Table S1 that are routinely used to detect the inflammatory and the apoptotic markers as determined in the present study. β-actin was used as loading control. […]

[7] = test system: TNF-α; experiment: Western blot of retinal homogenates, TNF-α; type: in vivo, rat; details: retina, MCE model, versus respective vehicle
Procedure: as §1, with “accuracy. […]” for “accuracy.”
as §3

[8] = after administration of 0.1% eye drops; cited from earlier work
[9] = test system: Iba1; experiment: Western blot of retinal homogenates, Iba1; type: in vivo, rat; details: retina, MCE model, versus respective vehicle
Procedure: as §1, with “accuracy. […]” for “accuracy.”
as §3

[10] = test system: active caspase 3; experiment: Western blot of retinal homogenates, active caspase 3; type: in vivo, rat; details: retina, MCE model, versus respective vehicle
Procedure: as §1, with “accuracy. […]” for “accuracy.”
as §3

[11] = test system: IL-10; experiment: Western blot of retinal homogenates, IL-10; type: in vivo, rat; details: retina, MCE model, versus respective vehicle
Procedure: as §1, with “accuracy. […]” for “accuracy.”
as §3

[12] = test system: IL-1β; experiment: Western blot of retinal homogenates, IL-1β; type: in vivo, rat; details: retina, MCE model, versus respective vehicle
Procedure: as §1, with “accuracy. […]” for “accuracy.”
as §3

[13] = test system: IL-4; experiment: Western blot of retinal homogenates, IL-4; type: in vivo, rat; details: retina, MCE model, versus respective vehicle
Procedure: as §1, with “accuracy. […]” for “accuracy.”
as §3

[14] = test system: MCE rat model of hypertensive glaucoma; experiment: Pattern ERG (PERG); type: in vivo; details: two weeks after MCE
Procedure: as §1, §2
PERG responses, mainly generated by RGC activity, can be useful for assessing RGC function in conditions such as glaucoma and ischemic optic neuropathy. PERG responses were evoked using an alternating pattern of black and white horizontal bars delivered on a stimulus display unit from a commercially available PERG system (SB700 Advanced, Nikon-Europe, Amsterdam, The Netherlands). Stimuli consisted in 0.05 cycles/deg black and white bars reversing at 1 Hz presented at 98% contrast. The pattern stimuli were administered through a light emitting diode display with a mean luminance of 50 cd/m^2 aligned at about 20 cm from the corneal surface. A total of 200 signals were averaged. Each animal was placed at the same fixed position in front of the monitor to prevent recording variability due to animal placement. PERG recordings were sequentially conducted in both eyes. The PERG response was evaluated by measuring the amplitude of the N35-P50 wave (from the trough of the negative peak N35, a small deflection near 35 ms after the stimulus, to the peak of the positive peak P50, a deflection near 50 ms after the stimulus) and the P50-N95 wave (from the peak of the positive peak P50 to the trough of the negative peak N95, a deflection near 95 ms after the stimulus). The implicit time was determined by measuring the time from the onset of the stimulus to the P50 and N95 peaks.

[15] = test system: MCE rat model of hypertensive glaucoma; experiment: Photopic full-field ERG, photopic negative response (PhNR); type: in vivo; details: two weeks after MCE; versus respective vehicle
Procedure: as §1, §2

[16] = test system: Bax/Bcl-2; experiment: Western blot of retinal homogenates, Bax/Bcl-2 ratio; type: in vivo, rat; details: retina, MCE model, versus respective vehicle
Procedure: as §1, with “accuracy. […]” for “accuracy.”
as §3

[17] = test system: GFAP; experiment: Western blot of retinal homogenates, GFAP; type: in vivo, rat; details: retina, MCE model, versus respective vehicle
Procedure: as §1, with “accuracy. […]” for “accuracy.”
as §3

[18] = in vivo; details: rat
Procedure: as §4

[19] = Sprague-Dawley, rat, in vivo, 2 h
Procedure: as §4

[20] = test system: MCE rat model of hypertensive glaucoma; experiment: IOP measurement by tonometry in the MCE model; type: in vivo; details: after two weeks of eye drops twice a day; in respect to the respective vehicle (vehicle 1 saline for timolol, brimonidine; vehicle 2 nanomicellar for melatonin/agomelatine)
Procedure: as §1, §2

[21] = of 120 µg given in 3 administrations of 40 µg

SMILES | Ki [3] | RGC loss spared [5] | RGC density (% of control), Central [5] | RGC density (% of control), Middle [5] | RGC density (% of control), Peripheral [5] | Reduction of IL-6 levels [6] | Reduction of TNF-α levels [7] | Reduction of Iba1 levels [9] | Decrease of the levels of the active form of caspase 3 [10] | Increase of IL-10 levels [11] | Reduction of IL-1β levels [12] | Increase of IL-4 levels [13] | Amplitude of the N35-P50 and P50-N95 waves, effect versus vehicle [14] | MCE-induced increase in the implicit time of the P50 and N95 components [14] | PhNR amplitude [15] | Reduction of the Bax/Bcl-2 ratio [16] | Reduction of GFAP levels [17] | other results
COc1ccc2cccc(CCNC(C)=O)c2c1 [agomelatine] | 0.12 nM | – | – | – | – | – | – | – | – | – | – | – | – | – | – | – | – | Ki [1]: 0.01 nM; concentration at 2 h ([2]; Sprague-Dawley, retina, Concentration in the retina (molar), converted from ng/mg): ~378 nM; concentration at 2 h ([2]; Sprague-Dawley, retina, Concentration, pool of retinas, pool of retinas of animals 1 to 5, 3 x 40 µg eye drops, 2 h after last instillation): 96 ng/g; concentration at 2 h ([2]; Sprague-Dawley, vitreous humor, Concentration, vitreous, individual animals 1-5, 3 x 40 µg eye drops, 2 h after last instillation): 71 ng/g; concentration at 2 h ([2]; Sprague-Dawley, vitreous humor, Concentration, vitreous, mean, mean of 5 animals, 3 x 40 µg eye drops, 2 h after last instillation): 80 ng/g; concentration at 2 h ([2]; Sprague-Dawley, whole eye, Concentration, whole eye, individual animals 1-5, 3 x 40 µg as 10 µL eye drops 2 h apart, sampled 2 h after last instillation): 10900 ng/g; concentration at 2 h ([2]; Sprague-Dawley, whole eye, Concentration, whole eye, mean, mean of 5 animals, 3 x 40 µg eye drops, 2 h after last instillation): 9940 ng/g; Content in the whole eye relative to melatonin ([2]; agomelatine 9.94 ng/mg vs melatonin 7.44 ng/mg): 1.33 times; Concentration, whole eye ([2]; individual animals 1-5, 3 x 40 µg as 10 µL eye drops 2 h apart, sampled 2 h after last instillation): 10.64 ng/mg and 11.35 ng/mg and 9.16 ng/mg and 7.67 ng/mg; Concentration, vitreous ([2]; individual animals 1-5, 3 x 40 µg eye drops, 2 h after last instillation): 0.073 ng/mg and 0.099 ng/mg and 0.077 ng/mg and 0.084 ng/mg; Concentration, vitreous, mean ([2]; mean of 5 animals, 3 x 40 µg eye drops, 2 h after last instillation): 0.081 ng/mg; Amount retained in the whole eye [2, 21]: 1.59 µg; Fraction of the 120 µg given retained in the whole eye [2, 21]: ~1.3%; concentration at 2 h ([2]; retina, Concentration in the retina (molar), converted from ng/mg): 378 nM; concentration at 2 h ([2]; vitreous humor, Concentration in the vitreous humor (molar), converted from ng/mg): 332 nM; Retina concentration relative to melatonin ([2]; retina): twenty-two times higher
Brc1c(NC2=NCCN2)ccc2nccnc12 [brimonidine] | – | spared almost completely; also recorded: almost completely prevented | 88 ± 3 % of control | 91 ± 6 % of control | 91 ± 3 % of control | did not affect | did not affect | not affecting | ~2.2 fold | did not affect | did not affect | did not affect | partly prevented the reduction | prevented | almost restoring the PhNR amplitude to control levels | ~9.7 fold | about 1.6 fold | Concentration values after eye drops [4]: around 80 nM; Vitreous concentration [8]: 2 nM; Amplitude of the P50-N95 wave, lower than in controls ([14]; MCE alone about 55% reduced): ~25%; Amplitude of the N35-P50 wave, lower than in controls ([14]; MCE alone about 60% reduced): about 24%
COc1ccc2[nH]cc(CCNC(C)=O)c2c1 [melatonin] | 0.38 nM | – | – | – | – | – | – | – | – | – | – | – | – | – | – | – | – | concentration at 2 h ([18]; Sprague-Dawley, Concentration in the retina (molar)): ~17 nM; concentration at 2 h ([18]; Concentration in the retina (molar)): 17 nM; concentration at 2 h ([18]; Concentration in the vitreous humor (molar)): 43 nM; Fraction of the 120 µg given retained in the whole eye [19]: roughly 1%
CC(C)(C)NC[C@H](O)COc1nsnc1N1CCOCC1 [timolol] | – | about 11% | 78 ± 4 *^,§ % of control | 83 ± 3 *^,§ % of control | 81 ± 4 *^,§ % of control | did not affect | did not affect | did not affect | about 1.3 fold | did not affect | did not affect | did not affect | did not differ | did not affect | did not differ | about 1.6 fold | did not affect | Reduction of the MCE-induced increase in IOP [20]: about 32%
